Test results taken from patent publication US20060147932A1, “Methods of screening for modulators of nerve growth factor” (priority 2003, published 2006).

Test system: Adult rat DRG neurons
Test: Measurement of gene expression in adult DRG neurons by real-time PCR
Format: cell-based
Protocol: Dorsal root ganglia were dissected from adult (3-6 months old) Sprague-Dawley rats, and dissociated and cultured by standard techniques (Lindsay, 1988). Briefly, ganglia were stripped of their sheaths, and incubated in 0.125% collagenase type IV (Worthington) in Ham's F12 with 10% HIHS for two 90 minute periods at 37° C. They were then washed extensively and incubated in 0.25% trypsin (Worthington) in HBSS at 37 degrees for 30 minutes. After inactivation of trypsin with 10% heat inactivated horse serum and further washing, the ganglia were dissociated by gentle trituration through a flame polished Pasteur pipet.
Neurons were plated on polyornithine and laminin coated 96-well plates in defined serum free medium consisting of Hams F-14 nutrient mixture with plus 2 mM glutamine, 0.35% bovine serum albumin (Albumax II, Gibco-BRL or Pathocyte-5, ICN), 60 ng/ml progesterone, 16 ug/ml putrescine, 400 ng/ml L-thyroxine, 38 ng/ml sodium selenite, 340 ng/ml tri-iodo-thyronine, 60 ug/ml penicillin and 100 ug/ml streptomycin (Sigma) (Davies et al., 1993). NGF (10 ng/ml) and test compounds were added to the wells shortly before or after plating as described below.
Adult rat DRG neurons were plated in 96 well plates, exposed to different concentrations of NGF for 120 hours and specific mRNA expression was analysed using the Stratagene Mx4000 real time PCR instrument. These conditions allow detection of greater than 15-fold increase in substance P mRNA content relative to GAPDH mRNA at the highest concentration of NGF used (FIG. 1). In addition, it was shown that a greater than 3-fold reduction in galanin mRNA level relative to GAPDH mRNA at the highest concentration of NGF can be measured (FIG. 1).
After culture as described above for 5 days RNA was extracted and the ratio of substance P mRNA expression determined relative to GAPDH mRNA for RNA from each of the culture wells by RT-PCR. RT-PCR was also performed to determine the ratio of galanin to GAPDH mRNA for each RNA sample. […]

NGF: nerve growth factor, the first neurotrophin identified; acts through TrkA and p75 receptors
reduction in galanin mRNA level relative to GAPDH mRNA (highest concentration of NGF (range up to 50 ng/ml), 120 hours exposure, relative to cultures with no added NGF (FIG. 1)): greater than 3 fold
increase in substance P mRNA content relative to GAPDH mRNA (highest concentration of NGF used (range up to 50 ng/ml), 120 hours exposure, 96 well plates, relative to cultures with no added NGF (FIG. 1)): greater than 15 fold
combined difference in gene expression (substance P and galanin combined in a single assay) in the absence or presence of NGF (substance P mRNA relative to galanin mRNA, 120 hours exposure (FIG. 1)): approximately 50 fold
